Earlier results as cited in US20080044815A1, “Genetic Screen for Interaction Interface Mapping” (priority 2003, published 2008).

Assays:
[1] = test system: embryonic neurons; settings: Borasio et al. 1998
[2] = test system: neurons; settings: Saporito et al. 1999
[3] = test system: nerve growth factor (NGF)-deprived neurons; settings: Harris et al. 2002

CCSCc1ccc2c(c1)c1c3c(c4c5cc(CSCC)ccc5n5c4c1n2[C@H]1C[C@](O)(C(=O)OC)[C@]5(C)O1)CNC3=O [CEP-1347]
survival of embryonic neurons [1]: support the survival of embryonic neurons
loss of neurons in vivo [2]: attenuate the loss of neurons in vivo
metabolism and growth of NGF-deprived neurons [3]: preserve the metabolism and growth
